# Assays:
# Assay type in all cases: in vivo
# [1] = tested on: velvetleaf (Abutilon theophrasti MEDIC.); test: Test Example 3: foliar treatment, comparison with reference compounds; conditions: 15 g/ha, 3.3 to 4.3 leaf stage
# From the text: (§1) Upland field soil was put into a 1/1,000,000 hectare pot, and seeds of various plants were sown. […] The spray solutions thus prepared were applied for foliar treatment by a small sprayer.
# [2] = tested on: guineagrass (Panicum maximum Jacq.); test: as above; conditions: 3.5 g/ha, 3.5 to 4.3 leaf stage
# From the text: as §1
# corn (Zea mays L.) [3] = test: as above; conditions: 120 g/ha, 4.0 to 4.3 leaf stage, crop
# From the text: as §1
# [4] = tested on: green foxtail (Setaria viridis L.); test: as above; conditions: 4.0 to 4.5 leaf stage
# From the text: as §1
# [5] = tested on: Japanese bulrush (Scirpus juncoides); test: Test Example 4: paddy field pot, water application; conditions: 63 g/ha, 14th day after application
# From the text: (§2) Paddy field soil was put into a 1/1,000,000 hectare pot, and seeds of barnyardgrass (Echinochloa oryzicola vasing.) and Japanese bulrush (Scirpus juncoides) were sown and lightly covered with soil. Then, pot was left to stand in a greenhouse in a state irrigated to a water depth of from 0.5 to 1 cm, and next day or two days later, tubers of Japanese ribbon waparo (Sagittaria pygmaea) were planted. Then, the irrigated water depth was maintained to be from 3 to 4 cm, and when barnyardgrass and Japanese bulrush reached 0.5 leaf stage, and Japanese ribbon waparo reached primary leaf stage, a water diluted solution of a wettable powder or an emulsifieable concentrate of the compound of the present invention prepared in accordance with a conventional preparation method, was uniformly dropwise applied by a pipette so that the amount of active ingredients would be a prescribed amount. Further, paddy field soil was put into a 1/1,000,000 pot, followed by soil puddling to an irrigated water depth of from 3 to 4 cm. Next day, rice (Oryza sativa L.) (var.: Nihonbare) of two leaf stage was transplanted in a transplantation depth of 3 cm. On the 4th day after transplantation, the compound of the present invention was applied in the same manner as described above.
# [6] = tested on: Japanese ribbon waparo (Sagittaria pygmaea); test: Test Example 4: paddy field pot, water application; conditions: 63 g/ha, 14th day after application
# From the text: as §2
# [7] = tested on: barnyardgrass (Echinochloa oryzicola vasing.); test: Test Example 4: paddy field pot, water application; conditions: 63 g/ha, 14th day after application
# From the text: as §2
# [8] = tested on: velvetleaf (Abutilon theophrasti MEDIC.); test: Test Example 1: foliar treatment, upland pot; conditions: 63 g/ha, 21st day after application
# From the text: Upland field soil was put into a 1/170,000 hectare pot, and seeds of various plants were sown. […] The spray solutions thus prepared were applied for foliar treatment by a small sprayer.
# [9] = tested on: prickly sida (Sida spinosa L.); test: Test Example 2: soil application on the day after sowing; conditions: 250 g/ha, 19th to 22nd day after application
# From the text: (§3) Upland field soil was put into a 1/170,000 hectare pot, and seeds of various plants (barnyardgrass (Echinochloa crus-galli L.), crabgrass (Digitaria sanguinalis L.), green foxtail (Setaria viridis L.), redroot pigweed (Amaranthus retroflexus L.), prickly sida (Sida spinosa L.), velvetleaf (Abutilon theophrasti MEDIC.), rice (oryza sativa L.), corn (Zea mays L.) and soybean (Glycine max Merr.)) were sown. On the day after sowing, wettable powders or emulsifiable concentrates of the compounds of the present invention prepared in accordance with a conventional preparation method, were weighed so that the active ingredients became the prescribed amounts, and diluted with water in an amount corresponding to 500 liter per 1 hectare, followed by soil application with a small sprayer.
# [10] = tested on: velvetleaf (Abutilon theophrasti MEDIC.); test: as above; conditions: 250 g/ha, 19th to 22nd day after application
# From the text: as §3
# [11] = tested on: soybean (Glycine max Merr.); test: as above; conditions: 250 g/ha, 19th to 22nd day after application, crop
# From the text: as §3
# corn (Zea mays L.) [12] = test: as above; conditions: 250 g/ha, 19th to 22nd day after application, crop
# From the text: as §3
# [13] = tested on: redroot pigweed (Amaranthus retroflexus L.); test: as above; conditions: 250 g/ha, 19th to 22nd day after application
# From the text: as §3
# [14] = tested on: green foxtail (Setaria viridis L.); test: as above; conditions: 250 g/ha, 19th to 22nd day after application
# From the text: as §3
# [15] = tested on: barnyardgrass (Echinochloa crus-galli L.); test: as above; conditions: 250 g/ha, 19th to 22nd day after application
# From the text: as §3
# [16] = tested on: crabgrass (Digitaria sanguinalis L.); test: as above; conditions: 250 g/ha, 19th to 22nd day after application
# From the text: as §3
# rice (Oryza sativa L.) [17] = test: as above; conditions: 250 g/ha, 19th to 22nd day after application, crop
# From the text: as §3
# [18] = tested on: prickly sida (Sida spinosa L.); test: Test Example 1: foliar treatment, upland pot; conditions: 21st day after application
# From the text: (§4) Upland field soil was put into a 1/170,000 hectare pot, and seeds of various plants were sown. When the respective plants reached predetermined leaf stage ((1) barnyardgrass (Echinochloa crus-galli L.): 1.0 to 3.3 leaf stage, (2) crabgrass (Digitaria sanguinalis L.): 1.2 to 3.0 leaf stage, (3) green foxtail (Setaria viridis L.): 1.5 to 3.3 leaf stage, (4) redroot pigweed (Amaranthus retroflexus L.): 0.1 to 2.0 leaf stage, (5) prickly sida (Sida spinosa L.): cotyledon stage to 2.0 leaf stage, (6) velvetleaf (Abutilon theophrasti MEDIC.): 0.1 to 2.0 leaf stage, (7) rice (Oryza sativa L.): 1.3 to 3.0 leaf stage, (8) corn (Zea mays L.): 2.5 to 3.4 leaf stage, and (9) soybean (Glycine max Merr.): primary leaf stage to 0.3 leaf stage), wettable powders or emulsifiable concentrates of the compounds of the present invention prepared in accordance with a conventional preparation method, were weighed so that the active ingredients became the prescribed amounts, and diluted with water in an amount corresponding to 500 liter per 1 hectare (containing 0.1 vol % of an agricultural spreader (“KUSARINOH”, manufactured by NIHON NOHYAKU CO., LTD.)). The spray solutions thus prepared were applied for foliar treatment by a small sprayer.
# [19] = tested on: soybean (Glycine max Merr.); test: Test Example 1: foliar treatment, upland pot; conditions: 21st day after application, crop
# From the text: as §4
# corn (Zea mays L.) [20] = test: Test Example 1: foliar treatment, upland pot; conditions: 21st day after application, crop
# From the text: as §4
# [21] = tested on: redroot pigweed (Amaranthus retroflexus L.); test: Test Example 1: foliar treatment, upland pot; conditions: 21st day after application
# From the text: as §4
# [22] = tested on: green foxtail (Setaria viridis L.); test: Test Example 1: foliar treatment, upland pot; conditions: 21st day after application
# From the text: as §4
# [23] = tested on: barnyardgrass (Echinochloa crus-galli L.); test: Test Example 1: foliar treatment, upland pot; conditions: 21st day after application
# From the text: as §4
# [24] = tested on: crabgrass (Digitaria sanguinalis L.); test: Test Example 1: foliar treatment, upland pot; conditions: 21st day after application
# From the text: as §4
# rice (Oryza sativa L.) [25] = test: Test Example 1: foliar treatment, upland pot; conditions: 21st day after application, crop
# From the text: as §4
# [26] = tested on: rice (Oryza sativa L.) (var.: Nihonbare); test: Test Example 4: paddy field pot, water application, transplanted rice; conditions: 63 g/ha, 21st day after application, crop
# From the text: as §2
compound,measurement,setting,value
"CCOC(=O)OC(C)Oc1c(C(=O)c2ccc(S(C)(=O)=O)c(OCCOC)c2C)cnn1C (centres unmarked) [Compound No. 2, 1-(4-(3-(2-methoxyethoxy)-2-methyl-4-(methylsulfonyl)benzoyl)-1-methyl-1H-pyrazol-5-yloxy)ethyl ethylcarbonate]",Growth inhibition rate (%) (22nd day after application) Velvet leaf,[1],94%
same,Growth inhibition rate (%) (18th day after application) Guineagrass,[2],90%
same,Growth inhibition rate (%) (21st day after application) Corn,corn (Zea mays L.) [3],4%
same,Growth inhibition rate (%) (17th day after application) Green foxtail,[4]; 3.5 g/ha,93%
same,Growth inhibition rate (%) (17th day after application) Green foxtail,[4]; 7 g/ha,98%
same,Growth inhibition rate (%) Japanese bulrush,[5],60%
same,Growth inhibition rate (%) Japanese ribbon waparo,[6],95%
same,Growth inhibition rate (%) Barnyardgrass,[7],100%
same,Growth inhibition rate (%) Velvetleaf,[8],100%
same,Growth inhibition rate (%) Prickly sida,[9],70%
same,Growth inhibition rate (%) Velvetleaf,[10],60%
same,Growth inhibition rate (%) Soybean,[11],0%
same,Growth inhibition rate (%) Corn,corn (Zea mays L.) [12],0%
same,Growth inhibition rate (%) Redroot pigweed,[13],100%
same,Growth inhibition rate (%) Green foxtail,[14],100%
same,Growth inhibition rate (%) Barnyardgrass,[15],100%
same,Growth inhibition rate (%) Crabgrass,[16],100%
same,Growth inhibition rate (%) Rice,rice (Oryza sativa L.) [17],98%
same,Growth inhibition rate (%) Prickly sida,[18]; 7 g/ha,40%
same,Growth inhibition rate (%) Prickly sida,[18]; 63 g/ha,85%
same,Growth inhibition rate (%) Soybean,[19]; 7 g/ha,80%
same,Growth inhibition rate (%) Soybean,[19]; 63 g/ha,98%
same,Growth inhibition rate (%) Corn,corn (Zea mays L.) [20]; 7 g/ha,0%
same,Growth inhibition rate (%) Corn,corn (Zea mays L.) [20]; 63 g/ha,0%
same,Growth inhibition rate (%) Redroot pigweed,[21]; 7 g/ha,100%
same,Growth inhibition rate (%) Redroot pigweed,[21]; 63 g/ha,100%
same,Growth inhibition rate (%) Green foxtail,[22]; 7 g/ha,95%
same,Growth inhibition rate (%) Green foxtail,[22]; 63 g/ha,100%
same,Growth inhibition rate (%) Barnyardgrass,[23]; 7 g/ha,100%
same,Growth inhibition rate (%) Barnyardgrass,[23]; 63 g/ha,100%
same,Growth inhibition rate (%) Crabgrass,[24]; 7 g/ha,95%
same,Growth inhibition rate (%) Crabgrass,[24]; 63 g/ha,100%
same,Growth inhibition rate (%) Rice,rice (Oryza sativa L.) [25]; 7 g/ha,80%
same,Growth inhibition rate (%) Rice,rice (Oryza sativa L.) [25]; 63 g/ha,70%
same,Growth inhibition rate (%) Rice,[26],50%
